Assay results as given in ChEMBL document CHEMBL1201862, “PubChem BioAssay data set” (2004).
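Results reflect a 48-hour exposure of cells in 96-well plates to compound at five concentrations. The concentration for 50% growth inhibition is given as GI50.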 Active and inactive are the calls of the source. Cut-off read from the data, not from the text of the source: active = GI50 up to about 1.1 µM and inactive = higher.

Assays:
Assay in all cases: growth of human tumour cells (NCI), 48 h
HT-29 = tested on: HT-29
DLD-1 = tested on: DLD-1
OVCAR-4 = tested on: OVCAR-4
SNB-19 = tested on: SNB-19
DU-145 = tested on: DU-145
SK-MEL-5 = tested on: SK-MEL-5
KM-20L2 = tested on: KM-20L2
OVCAR-5 = tested on: OVCAR-5
HOP-62 = tested on: HOP-62
A498 = tested on: A498
HL-60 = tested on: HL-60
MDA-MB-435 = tested on: MDA-MB-435
MDA-N = tested on: MDA-N
786-0 = tested on: 786-0
NCI/ADR-RES = tested on: NCI/ADR-RES
DMS-114 = tested on: DMS-114
DMS-273 = tested on: DMS-273
T47D = tested on: T47D
PC-3 = tested on: PC-3
SK-MEL-28 = tested on: SK-MEL-28

Structure (SMILES): Cc1c(N)nc(C2CC(=O)N2CC(N)C(N)=O)nc1C(=O)NC(C(=O)NC(C)C(O)C(C)C(=O)NC(C(=O)NCCc1nc(-c2nc(C(=O)NCCNCC(C)O)cs2)cs1)C(C)O)C(OC1OC(CO)C(O)C(O)C1OC1OC(CO)C(O)C(OC(N)=O)C1O)c1c[nH]cn1 (stereo not given)
- GI50 (HT-29): 21.3 µM (inactive)
- GI50 (DLD-1): 32.4 µM (inactive)
- GI50 (OVCAR-4): 7.57 µM (inactive)
- GI50 (SNB-19): 5.38 µM (inactive)
- GI50 (DU-145): 7.87 µM (inactive)
- GI50 (SK-MEL-5): 0.809 µM (active)
- GI50 (KM-20L2): 58.6 µM (inactive)
- GI50 (OVCAR-5): 2.67 µM (inactive)
- GI50 (HOP-62): 0.0556 µM (active)
- GI50 (A498): 5.35 µM (inactive)
- GI50 (HL-60): 5.75 µM (inactive)
- GI50 (MDA-MB-435): 3.1 µM (inactive)
- GI50 (MDA-N): > 50 µM (inactive)
- GI50 (786-0): 33.2 µM (inactive)
- GI50 (NCI/ADR-RES): 31 µM (inactive)
- GI50 (DMS-114): 0.397 µM (active)
- GI50 (DMS-273): 0.129 µM (active)
- GI50 (T47D): > 5 µM (inactive)
- GI50 (PC-3): > 50 µM (inactive)
- GI50 (SK-MEL-28): 43.2 µM (inactive)
